Values joined by “and” are separate entries in the source; they are usually repeats but may differ in a detail not shown here. Equal values may be shown once.
Legend:
TA100 = test: Bacterial cytotoxicity; type: cell-based
From the text: (§1) Data S2. Bacterial cytotoxicity of A41.
(§2) Test Concentration %Effect Cytotoxicity (% of control) […]

TA1535 [1] = test: Bacterial cytotoxicity; type: cell-based
From the text: as §1, §2

TA1535 [2] = test: Ames fluctuation test (5th group); type: cell-based
From the text: Data S3. Ames-fluctuation assay-A41.
Test Concentration Count Positive Significance Fisher Exact Test

[3] = system: Calcium Channel L-Type, Dihydropyridine; test: Safety screen; type: binding, rat
Endothelin ETA = Endothelin ETA (Homo sapiens, UniProt P25101); test: Safety screen; type: binding
Description: Blood cell counts, kinase profiler, safety screen, bacterial cytotoxicity, Ames, micronucleus assays were performed by the company Eurofins (France).

ALK1(h) = ALK1(h) (Homo sapiens, UniProt P37023); test: Kinase Profiler; type: biochemical
Description: (§3) The kinase profiler was performed by the company Eurofins (Discovery, Panlab and Cerep).

Bmx(h) = Bmx(h) (Homo sapiens, UniProt P51813); test: Kinase Profiler; type: biochemical
Description: (§4) Blood cell counts, kinase profiler, safety screen, bacterial cytotoxicity, Ames, micronucleus assays were performed by the company Eurofins (France). The kinase profiler was performed by the company Eurofins (Discovery, Panlab and Cerep).

CDK5/p35(h) = CDK5/p35(h) (Homo sapiens, UniProt Q00535); test: Kinase Profiler; type: biochemical
Description: as §4

cKit(h) = cKit(h) (Homo sapiens, UniProt P10721); test: Kinase Profiler; type: biochemical
Description: as §4

EphA2(h) = EphA2(h) (Homo sapiens, UniProt P29317); test: Kinase Profiler; type: biochemical
Description: as §4

Hck(h) = Hck(h) (Homo sapiens, UniProt P08631); test: Kinase Profiler; type: biochemical
Description: as §3

MEK1(h) = MEK1(h) (Homo sapiens, UniProt Q02750); test: Kinase Profiler; type: biochemical
Description: as §3

Met(Y1248H)(h) = Met(Y1248H)(h) (Homo sapiens, UniProt P08581, Y1230H); test: Kinase Profiler; type: biochemical
Description: as §3

MRCKα(h) = MRCKα(h) (Homo sapiens, UniProt Q5VT25); test: Kinase Profiler; type: biochemical
Description: as §3

OSR1(h) = OSR1(h) (Homo sapiens, UniProt O95747); test: Kinase Profiler; type: biochemical
Description: as §4

p70S6K(h) = p70S6K(h) (Homo sapiens, UniProt P23443); test: Kinase Profiler; type: biochemical
Description: as §4

PASK(h) = PASK(h) (Homo sapiens, UniProt Q96RG2); test: Kinase Profiler; type: biochemical
Description: as §3

Plk1(h) = Plk1(h) (Homo sapiens, UniProt P53350); test: Kinase Profiler; type: biochemical
Description: as §3

RIPK1(h) = RIPK1(h) (Homo sapiens, UniProt Q13546); test: Kinase Profiler; type: biochemical
Description: as §3

Snk(h) = Snk(h) (Homo sapiens, UniProt Q9NYY3); test: Kinase Profiler; type: biochemical
Description: as §3

Txk(h) = Txk(h) (Homo sapiens, UniProt P42681); test: Kinase Profiler; type: biochemical
Description: as §4

VRK2(h) = VRK2(h) (Homo sapiens, UniProt Q86Y07); test: Kinase Profiler; type: biochemical
Description: as §3

PI3K (p120g)(h) = PI3K (p120g)(h) (Homo sapiens, UniProt P48736); test: Kinase Profiler; type: biochemical
Description: as §4

p70S6K(h), sequence (P23443 whole entry): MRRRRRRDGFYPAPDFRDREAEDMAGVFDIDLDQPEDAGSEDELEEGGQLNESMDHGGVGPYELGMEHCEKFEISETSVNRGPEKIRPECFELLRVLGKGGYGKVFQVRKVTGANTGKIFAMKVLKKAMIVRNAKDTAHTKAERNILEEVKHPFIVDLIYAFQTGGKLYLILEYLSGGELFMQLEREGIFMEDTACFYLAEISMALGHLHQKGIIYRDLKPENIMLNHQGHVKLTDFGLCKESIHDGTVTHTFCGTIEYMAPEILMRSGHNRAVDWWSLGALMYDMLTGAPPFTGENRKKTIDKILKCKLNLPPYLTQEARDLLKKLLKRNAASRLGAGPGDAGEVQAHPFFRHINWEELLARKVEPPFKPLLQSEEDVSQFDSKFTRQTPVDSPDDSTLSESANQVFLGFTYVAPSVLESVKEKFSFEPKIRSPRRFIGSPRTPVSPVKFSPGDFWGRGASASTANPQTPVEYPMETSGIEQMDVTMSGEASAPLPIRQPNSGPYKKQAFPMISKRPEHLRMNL
MRCKα(h), sequence (Q5VT25 whole entry): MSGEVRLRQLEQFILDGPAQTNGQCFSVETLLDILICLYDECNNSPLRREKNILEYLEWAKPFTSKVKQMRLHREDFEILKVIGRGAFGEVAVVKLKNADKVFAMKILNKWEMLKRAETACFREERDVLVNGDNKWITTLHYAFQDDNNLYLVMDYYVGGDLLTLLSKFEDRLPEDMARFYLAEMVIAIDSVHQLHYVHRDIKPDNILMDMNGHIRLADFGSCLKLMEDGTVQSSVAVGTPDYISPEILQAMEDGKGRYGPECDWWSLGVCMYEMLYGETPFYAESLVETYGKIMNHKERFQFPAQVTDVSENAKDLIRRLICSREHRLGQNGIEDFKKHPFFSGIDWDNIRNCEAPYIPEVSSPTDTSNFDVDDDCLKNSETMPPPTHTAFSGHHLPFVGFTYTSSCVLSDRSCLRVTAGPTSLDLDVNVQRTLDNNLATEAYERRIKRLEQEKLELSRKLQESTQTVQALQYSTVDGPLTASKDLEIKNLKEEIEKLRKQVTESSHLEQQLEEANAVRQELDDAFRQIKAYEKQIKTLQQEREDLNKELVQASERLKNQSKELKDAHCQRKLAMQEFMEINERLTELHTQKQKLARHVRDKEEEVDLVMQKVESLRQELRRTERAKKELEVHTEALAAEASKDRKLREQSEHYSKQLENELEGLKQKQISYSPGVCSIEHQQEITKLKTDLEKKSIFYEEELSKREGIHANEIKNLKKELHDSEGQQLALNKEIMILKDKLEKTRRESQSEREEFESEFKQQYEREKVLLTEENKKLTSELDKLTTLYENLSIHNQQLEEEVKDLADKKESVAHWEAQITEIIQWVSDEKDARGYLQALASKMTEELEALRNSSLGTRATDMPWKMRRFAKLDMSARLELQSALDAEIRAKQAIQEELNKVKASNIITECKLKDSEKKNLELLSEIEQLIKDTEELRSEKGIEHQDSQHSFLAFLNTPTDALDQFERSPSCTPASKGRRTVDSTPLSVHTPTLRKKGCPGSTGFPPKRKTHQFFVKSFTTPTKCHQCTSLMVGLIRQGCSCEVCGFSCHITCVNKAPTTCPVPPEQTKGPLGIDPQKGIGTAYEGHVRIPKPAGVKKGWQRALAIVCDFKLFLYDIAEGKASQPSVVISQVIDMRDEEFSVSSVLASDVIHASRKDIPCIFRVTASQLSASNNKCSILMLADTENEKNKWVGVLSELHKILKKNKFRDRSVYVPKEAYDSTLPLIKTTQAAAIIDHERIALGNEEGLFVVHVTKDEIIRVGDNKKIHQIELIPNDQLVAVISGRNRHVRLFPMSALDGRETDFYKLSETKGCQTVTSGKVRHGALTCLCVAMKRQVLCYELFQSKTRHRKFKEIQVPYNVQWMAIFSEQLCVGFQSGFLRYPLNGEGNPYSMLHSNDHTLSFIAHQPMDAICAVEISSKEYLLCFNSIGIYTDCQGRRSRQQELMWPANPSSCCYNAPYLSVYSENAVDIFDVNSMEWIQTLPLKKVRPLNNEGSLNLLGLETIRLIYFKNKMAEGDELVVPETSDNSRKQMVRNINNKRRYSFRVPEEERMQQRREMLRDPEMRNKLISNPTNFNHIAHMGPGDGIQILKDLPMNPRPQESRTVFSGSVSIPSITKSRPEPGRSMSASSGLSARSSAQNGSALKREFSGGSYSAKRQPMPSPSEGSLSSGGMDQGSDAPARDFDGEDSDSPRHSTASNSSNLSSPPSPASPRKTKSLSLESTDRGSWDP
EphA2(h), sequence (P29317 24-976): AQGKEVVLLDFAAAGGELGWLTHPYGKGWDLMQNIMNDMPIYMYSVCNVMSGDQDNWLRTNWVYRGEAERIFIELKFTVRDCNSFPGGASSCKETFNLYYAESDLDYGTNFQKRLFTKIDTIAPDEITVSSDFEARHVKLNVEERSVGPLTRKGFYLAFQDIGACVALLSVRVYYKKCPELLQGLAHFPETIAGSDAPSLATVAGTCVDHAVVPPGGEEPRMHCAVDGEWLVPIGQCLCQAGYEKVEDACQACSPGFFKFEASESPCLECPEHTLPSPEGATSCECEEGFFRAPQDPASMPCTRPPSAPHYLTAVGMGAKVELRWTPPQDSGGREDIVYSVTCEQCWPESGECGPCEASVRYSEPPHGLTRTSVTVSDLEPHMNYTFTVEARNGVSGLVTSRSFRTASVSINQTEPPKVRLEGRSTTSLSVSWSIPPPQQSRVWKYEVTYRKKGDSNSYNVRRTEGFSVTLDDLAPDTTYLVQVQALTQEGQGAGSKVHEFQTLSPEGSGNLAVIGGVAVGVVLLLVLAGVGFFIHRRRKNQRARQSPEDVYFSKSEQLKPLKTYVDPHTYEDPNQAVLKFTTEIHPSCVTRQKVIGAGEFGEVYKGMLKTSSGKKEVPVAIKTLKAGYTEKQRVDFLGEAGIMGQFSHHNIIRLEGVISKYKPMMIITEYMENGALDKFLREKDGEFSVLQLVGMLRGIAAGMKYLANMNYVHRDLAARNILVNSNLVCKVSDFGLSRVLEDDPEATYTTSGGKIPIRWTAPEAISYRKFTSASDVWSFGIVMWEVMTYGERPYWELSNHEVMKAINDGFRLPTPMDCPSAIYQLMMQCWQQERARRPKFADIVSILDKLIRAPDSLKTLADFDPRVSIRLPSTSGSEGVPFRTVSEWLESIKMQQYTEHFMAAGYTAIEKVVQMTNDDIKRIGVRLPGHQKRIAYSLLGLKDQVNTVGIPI
ALK1(h), sequence (P37023 22-503): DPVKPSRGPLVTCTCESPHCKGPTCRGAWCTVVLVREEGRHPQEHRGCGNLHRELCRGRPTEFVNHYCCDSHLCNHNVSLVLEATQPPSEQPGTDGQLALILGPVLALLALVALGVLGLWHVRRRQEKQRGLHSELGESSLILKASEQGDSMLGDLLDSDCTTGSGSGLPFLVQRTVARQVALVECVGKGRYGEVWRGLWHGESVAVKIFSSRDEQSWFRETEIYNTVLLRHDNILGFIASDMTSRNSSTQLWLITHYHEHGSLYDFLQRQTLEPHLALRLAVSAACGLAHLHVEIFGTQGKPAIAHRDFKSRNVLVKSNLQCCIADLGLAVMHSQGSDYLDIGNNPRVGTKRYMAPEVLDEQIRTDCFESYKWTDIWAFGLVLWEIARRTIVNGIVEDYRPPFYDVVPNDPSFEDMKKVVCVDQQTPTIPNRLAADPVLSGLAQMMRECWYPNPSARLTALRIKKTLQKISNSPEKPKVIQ
Hck(h), sequence (P08631 whole entry): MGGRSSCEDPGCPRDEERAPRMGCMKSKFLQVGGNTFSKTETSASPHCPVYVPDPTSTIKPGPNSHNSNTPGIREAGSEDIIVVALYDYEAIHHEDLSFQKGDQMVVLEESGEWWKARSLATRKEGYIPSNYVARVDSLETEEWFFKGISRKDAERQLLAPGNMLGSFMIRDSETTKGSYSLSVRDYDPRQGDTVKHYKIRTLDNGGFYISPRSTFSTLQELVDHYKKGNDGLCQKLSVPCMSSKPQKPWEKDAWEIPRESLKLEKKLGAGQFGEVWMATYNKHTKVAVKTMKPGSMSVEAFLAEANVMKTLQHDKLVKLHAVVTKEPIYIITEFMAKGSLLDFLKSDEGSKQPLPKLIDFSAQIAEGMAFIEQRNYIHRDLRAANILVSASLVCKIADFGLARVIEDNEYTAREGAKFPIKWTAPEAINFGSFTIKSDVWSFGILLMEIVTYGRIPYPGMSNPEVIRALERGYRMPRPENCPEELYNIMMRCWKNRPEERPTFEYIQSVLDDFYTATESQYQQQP
Bmx(h), sequence (P51813 whole entry): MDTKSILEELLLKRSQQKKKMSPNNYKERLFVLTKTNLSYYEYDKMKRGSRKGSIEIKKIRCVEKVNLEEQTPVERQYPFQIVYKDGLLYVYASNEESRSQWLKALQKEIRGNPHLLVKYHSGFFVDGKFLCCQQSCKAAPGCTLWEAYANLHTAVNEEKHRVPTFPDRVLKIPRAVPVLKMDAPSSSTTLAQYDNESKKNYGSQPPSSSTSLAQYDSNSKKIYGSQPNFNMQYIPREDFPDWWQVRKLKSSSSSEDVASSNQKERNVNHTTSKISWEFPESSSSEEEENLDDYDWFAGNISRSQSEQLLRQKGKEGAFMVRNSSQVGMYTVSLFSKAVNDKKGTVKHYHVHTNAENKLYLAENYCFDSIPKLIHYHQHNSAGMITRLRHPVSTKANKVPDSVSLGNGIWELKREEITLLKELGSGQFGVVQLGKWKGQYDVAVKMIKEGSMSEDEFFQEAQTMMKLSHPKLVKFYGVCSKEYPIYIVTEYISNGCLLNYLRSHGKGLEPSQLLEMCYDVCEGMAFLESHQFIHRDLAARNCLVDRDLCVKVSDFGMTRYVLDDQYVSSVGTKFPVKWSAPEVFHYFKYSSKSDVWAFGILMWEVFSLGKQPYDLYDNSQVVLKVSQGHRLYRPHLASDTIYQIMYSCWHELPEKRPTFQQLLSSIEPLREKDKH

## COc1ccc(OC)c(NS(=O)(=O)c2ccc(NC(=O)CCSc3ccc(C)cc3)cc2)c1 [Compound A41]
TA100; - S9, 1.0E-04 M
  %Effect, single replicates (1st, 2nd, 3rd): 222.5% and 205.5% and 199.0%
  Cytotoxicity (% of control), Mean %Effect: 209.0%
TA100; - S9, 1.0E-05 M
  %Effect, single replicates (1st, 2nd, 3rd): 116.5% and 108.6% and 92.9%
  Cytotoxicity (% of control), Mean %Effect: 106.0%
TA100; - S9, 1.2E-06 M
  %Effect, single replicates (1st, 2nd, 3rd): 103.4% and 99.5% and 92.9%
  Cytotoxicity (% of control), Mean %Effect: 98.6%
TA100; - S9, 2.5E-05 M
  %Effect, single replicates (1st, 2nd, 3rd): 113.9% and 111.3% and 100.8%
  Cytotoxicity (% of control), Mean %Effect: 108.6%
TA100; - S9, 2.5E-06 M
  %Effect, single replicates (1st, 2nd, 3rd): 106.0% and 103.4% and 92.9%
  Cytotoxicity (% of control), Mean %Effect: 100.8%
TA100; - S9, 5.0E-05 M
  %Effect, single replicates (1st, 2nd, 3rd): 112.6% and 53.1% and 102.1%
TA100; - S9, 5.0E-06 M
  %Effect, single replicates (1st, 2nd, 3rd): 116.5% (2×) and 91.6%
  Cytotoxicity (% of control), Mean %Effect: 108.2%
TA100; - S9, 6.0E-07 M
  %Effect, single replicates (1st, 2nd, 3rd): 104.7% (2×) and 98.2%
  Cytotoxicity (% of control), Mean %Effect: 102.5%
TA1535 [1]; - S9, 1.0E-04 M
  %Effect, single replicates (1st, 2nd, 3rd): 219.4% and 233.3% and 215.9%
  Cytotoxicity (% of control), Mean %Effect: 222.9%
TA1535 [1]; - S9, 1.0E-05 M
  %Effect, single replicates (1st, 2nd, 3rd): 96.4% and 98.7% and 108.0%
  Cytotoxicity (% of control), Mean %Effect: 101.0%
TA1535 [1]; - S9, 1.2E-06 M
  %Effect, single replicates (1st, 2nd, 3rd): 91.7% and 97.5% and 88.2%
  Cytotoxicity (% of control), Mean %Effect: 92.5%
TA1535 [1]; - S9, 2.5E-05 M
  %Effect, single replicates (1st, 2nd, 3rd): 116.1% and 99.8% and 98.7%
  Cytotoxicity (% of control), Mean %Effect: 104.9%
TA1535 [1]; - S9, 2.5E-06 M
  %Effect, single replicates (1st, 2nd, 3rd): 92.9% and 91.7% and 97.5%
  Cytotoxicity (% of control), Mean %Effect: 94.0%
TA1535 [1]; - S9, 5.0E-05 M
  %Effect, single replicates (1st, 2nd, 3rd): 168.3% and 163.7% and 175.3%
  Cytotoxicity (% of control), Mean %Effect: 169.1%
TA1535 [1]; - S9, 5.0E-06 M
  %Effect, single replicates (1st, 2nd, 3rd): 96.4% and 95.2% and 99.8%
  Cytotoxicity (% of control), Mean %Effect: 97.1%
TA1535 [1]; - S9, 6.0E-07 M
  %Effect, single replicates (1st, 2nd, 3rd): 89.4% and 96.4% and 94.0%
  Cytotoxicity (% of control), Mean %Effect: 93.3%
TA1535 [2]; - S9, 1.0E-04 M
  Count Positive (# of wells): 0
TA1535 [2]; - S9, 1.0E-05 M
  Count Positive (# of wells): 2
TA1535 [2]; - S9, 5.0E-05 M
  Count Positive (# of wells): 0
TA1535 [2]; - S9, 5.0E-06 M
  Count Positive (# of wells): 0
[3]
  % inh.: 85%
Endothelin ETA
  % inh.: -8%
ALK1(h)
  Activity(%): 102%
Bmx(h)
  Activity(%): 124%
CDK5/p35(h)
  Activity(%): 99%
cKit(h)
  Activity(%): 101%
EphA2(h)
  Activity(%): 98%
Hck(h)
  Activity(%): 111%
MEK1(h)
  Activity(%): 97%
Met(Y1248H)(h)
  Activity(%): 120%
MRCKα(h)
  Activity(%): 109%
OSR1(h)
  Activity(%): 103%
p70S6K(h)
  Activity(%): 103%
PASK(h)
  Activity(%): 97%
Plk1(h)
  Activity(%): 106%
RIPK1(h)
  Activity(%): 98%
Snk(h)
  Activity(%): 112%
Txk(h)
  Activity(%): 118%
VRK2(h)
  Activity(%): 110%
PI3K (p120g)(h)
  Activity(%): 104%
